Assay results published in patent publication US10988455B2, “1,2,4-triazine-4-amine derivatives” (Heptares Therapeutics Limited, priority 2010, dated 2021).

How the values were obtained:
[1] = system: haloperidol-induced catalepsy in rats; assay: Catalepsy reversal test (Test B); type: in vivo, Sprague-Dawley rats; details: dose of 1 mg/kg p.o., 120 min pre-test time
Protocol: The dopamine D2 receptor antagonist, haloperidol, induces Parkinsonism in humans and induces motor effects in rats such as catalepsy. There is considerable evidence that adenosine A2A receptor antagonists reverse haloperidol-induced motor effects in preclinical studies. […] The present study determines the ability of haloperidol-induced catalepsy in rats to be reversed by novel A2A receptor antagonists.
Haloperidol (0.82 mg/kg, i.p.; 150 min pre-test time) induces significant cataleptic behaviour in rats (average score 3.1). The effect of selected compounds of the invention (2-10 mg/kg or 0.3-3 mg/kg, p.o.; 120 min pre-test time) on catalepsy was established by administration of said compounds to rats pre-treated with haloperidol as described above.
Details of a similar test may be found in, for example, Hodgson et al., J. Pharmacol. Exp. Ther. 330, 2009.

[2] = target: human adenosine A1 receptor (Homo sapiens (Human), UniProt P30542); assay: CHO-hA1 [3H]DPCPX binding assay (Test A); details: CHO membranes, 1 nM [3H]DPCPX, 25° C., 1 h
Sequence of human adenosine A1 receptor (P30542 whole entry): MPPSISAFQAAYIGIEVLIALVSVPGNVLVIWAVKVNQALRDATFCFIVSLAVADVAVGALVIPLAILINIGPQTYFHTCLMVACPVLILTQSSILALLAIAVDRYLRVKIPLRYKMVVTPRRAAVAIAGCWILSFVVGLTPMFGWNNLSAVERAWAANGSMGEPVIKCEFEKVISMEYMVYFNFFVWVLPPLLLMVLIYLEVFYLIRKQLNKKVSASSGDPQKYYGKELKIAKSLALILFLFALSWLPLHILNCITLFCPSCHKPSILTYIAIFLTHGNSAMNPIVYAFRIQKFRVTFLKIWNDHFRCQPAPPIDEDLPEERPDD
Protocol: (§1) All test compounds were prepared as a stock solution of 10 mM in 100% DMSO.

[3] = target: human adenosine A2a receptor (Homo sapiens (Human), UniProt P29274); assay: HEK293-hA2a [3H]-ZM241385 binding assay (Test A); details: HEK293 membranes, 1 nM [3H]ZM241385, 25° C., 1 h
Sequence of human adenosine A2a receptor (P29274 whole entry): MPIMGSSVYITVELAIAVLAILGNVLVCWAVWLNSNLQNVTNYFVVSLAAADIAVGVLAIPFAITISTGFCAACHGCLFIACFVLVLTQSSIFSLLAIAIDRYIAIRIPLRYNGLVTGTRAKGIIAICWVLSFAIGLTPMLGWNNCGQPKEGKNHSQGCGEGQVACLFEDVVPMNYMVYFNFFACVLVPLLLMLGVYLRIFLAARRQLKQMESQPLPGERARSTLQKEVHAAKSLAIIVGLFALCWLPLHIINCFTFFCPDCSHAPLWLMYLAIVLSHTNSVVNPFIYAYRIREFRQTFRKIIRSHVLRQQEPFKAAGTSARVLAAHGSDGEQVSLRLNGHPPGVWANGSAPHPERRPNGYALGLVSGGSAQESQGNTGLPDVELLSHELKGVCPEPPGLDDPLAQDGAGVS
Protocol: as §1

pKi A1 [2]: 8.05 | pKi A2a [3]: 8.52
SMILES: Cc1cc(-c2nnc(N)nc2-c2ccccc2)cc(N2CCC2)n1 [5(x), 6-[2-(Azetidin-1-yl)-6-methylpyridin-4-yl]-5-phenyl-1,2,4-triazin-3-amine]
reversal of cataleptic behavior in rats pre-treated with haloperidol [1]: statistically significant
